Source: EPA's ToxValDB 9.5
Where “and” joins values, the source holds several entries; their conditions need not be identical. Identical values can stand only once.

Key:
Rattus norvegicus [1] = settings: for LC50 / LD50: acute
Oryctolagus sp. = settings: for LD50: acute; for LOAEL: Dutch-belted
Rattus norvegicus [2] = tested on: Rattus norvegicus
Mus musculus = settings: chronic; duration: 81 weeks; oral; M/F; B6C3F1; respiratory
Rattus norvegicus [3] = settings: subchronic, oral; for NOEL: gavage, M, Sprague-Dawley
Rattus norvegicus [4] = settings: uterotrophic; duration: 3 days; injection; subcutaneous; Active
[5] = developmental, duration: 10 days, oral, gavage, Sprague-Dawley
[6] = subchronic, duration: 30 days, oral, diet, Sprague-Dawley
[7] = reproduction developmental, oral, gavage, Sprague-Dawley, generation: F1
[8] = chronic, duration: 6 months, inhalation, Sprague-Dawley
[9] = short-term, duration: 14 days, oral, gavage, F, Fischer 344
[10] = short-term, duration: 14 days, oral, gavage, M, Fischer 344
[11] = subchronic, duration: 13 weeks, inhalation, F, Fischer 344
[12] = subchronic, duration: 13 weeks, inhalation, Fischer 344
[13] = subchronic, duration: 13 weeks, oral, gavage, F, Fischer 344
[14] = subchronic, duration: 13 weeks, oral, gavage, Fischer 344

SMILES: CN1C(=O)c2ccc(Oc3ccc(C(C)(C)c4ccc(Oc5ccc6c(c5)C(=O)N(C)C6=O)cc4)cc3)cc2C1=O
- NOAEL (Rattus norvegicus [1]; [5]): > 1000 mg/kg-day
- NOAEL (Rattus norvegicus [1]; reproduction developmental, duration: 4 weeks, oral, gavage, Sprague-Dawley, generation: F0): > 1000 mg/kg-day
- NOAEL (Rattus norvegicus [1]; reproduction developmental, duration: 4 weeks, oral, gavage, Sprague-Dawley, generation: F1): > 1000 mg/kg-day
- NOAEL (Rattus norvegicus [1]; reproduction developmental, duration: 10 days, oral, gavage, Crl:CD(SD) BR): > 1000 mg/kg-day
- LOAEL (% diet) (Rattus norvegicus [1]; [6]): > 4
- NOAEL (Rattus norvegicus [1]; [6]): ≥ 2750 mg/kg-day and ≤ 3160 mg/kg-day
- NOAEL (% diet) (Rattus norvegicus [1]; [6]): 4
- NOAEC (Oryctolagus sp.; developmental, duration: 12 days, oral, gavage, New Zealand): > 1000 mg/kg-day
- NOAEL (Oryctolagus sp.; reproduction developmental, duration: 12 days, oral, gavage, F, New Zealand): > 1000 mg/kg-day
- NOAEC (Oryctolagus sp.; reproduction developmental, duration: 13 days, oral, gavage, F, New Zealand): > 1000 mg/kg-day
- NOAEC (Oryctolagus sp.; reproduction developmental, duration: 13 days, oral, gavage, New Zealand): > 1000 mg/kg-day

SMILES: CCCBr [1-Bromopropane]
- NOAEL (Rattus norvegicus [2]; short-term, duration: 3 weeks, inhalation, whole body, M, F-344, neurological): 50.3 mg/m3

SMILES: Cc1cccc2ccccc12 [1-Methylnaphthalene]
- LOAEL (Mus musculus): 71.6 mg/kg-day
- NOEL (Rattus norvegicus [3]; Absolute Organ Weight: Liver increase + Relative Organ Weight: Liver increase): 50 mg/kg-day

SMILES: CCCCC(CC)CO[N+](=O)[O-] (stereo not drawn) [2-Ethylhexyl nitrate]
- NOAEL (Rattus norvegicus [1]; reproduction developmental, oral, gavage, Sprague-Dawley, generation: F0): 20 mg/kg-day
- NOAEL (Rattus norvegicus [1]; [7]): 100 mg/kg-day
- NOAEL (Rattus norvegicus [1]; short-term, duration: 14 days, inhalation, Sprague-Dawley): 301 mg/m3
- NOAEL (Rattus norvegicus [1]; short-term, duration: 28 days, oral, gavage, Sprague-Dawley): 20 mg/kg-day
- NOAEL (Oryctolagus sp.; short-term, duration: 15 days, dermal, semiocclusive, Albino): > 500 mg/kg-day

SMILES: Cc1ccccn1 [2-Methylpyridine]
- LC50 (Rattus norvegicus [1]; inhalation): ≥ 7620 mg/m3 and ≤ 15200 mg/m3
- LC50 (Rattus norvegicus [1]; inhalation, Sprague-Dawley): < 13200 mg/m3
- LD50 (Rattus norvegicus [1]; oral, gavage, Sprague-Dawley): 810 mg/kg and > 950 mg/kg
- LOAEL (Rattus norvegicus [1]; [8]): > 381 mg/m3
- NOAEL (Rattus norvegicus [1]; [8]): ≥ 381 mg/m3
- LD50 (Oryctolagus sp.; dermal): ≥ 252 mg/kg and ≤ 500 mg/kg
- LD50 (Oryctolagus sp.; dermal, occlusive, New Zealand): ≥ 200 mg/kg and ≤ 316 mg/kg

SMILES: CC(C)(c1ccc(Oc2ccc3c(c2)C(=O)OC3=O)cc1)c1ccc(Oc2ccc3c(c2)C(=O)OC3=O)cc1 [4,4'-(4,4'-Isopropylidenediphenoxy)bisphthalic dianhydride]
- LD50 (Rattus norvegicus [1]; oral, gavage, Spartan): > 5000 mg/kg
- LD50 (Rattus norvegicus [1]; oral, gavage, Sprague-Dawley): > 5000 mg/kg
- NOAEL (Rattus norvegicus [1]; [5]): > 1000 mg/kg-day
- NOAEL (Rattus norvegicus [1]; reproduction developmental, oral, gavage, Sprague-Dawley): > 1000 mg/kg-day
- NOAEL (Rattus norvegicus [1]; [7]): > 1000 mg/kg-day
- LOAEL (% diet) (Rattus norvegicus [1]; [6]): > 4
- NOAEL (% diet) (Rattus norvegicus [1]; [6]): 4
- LD50 (Oryctolagus sp.; dermal, New Zealand): > 2000 mg/kg
- LD50 (Oryctolagus sp.; dermal, occlusive, New Zealand): > 2000 mg/kg

SMILES: Nc1ccc(Cc2ccc(N)cc2)cc1 [4,4'-Diaminobiphenyl methane]
- LOAEL (Rattus norvegicus [2]; acute, duration: 1 days, oral, gavage, M, Sprague-Dawley, hepatic): 25 mg/kg-day
- NOAEL (Rattus norvegicus [2]; subchronic, duration: 12 weeks, oral, gavage, M/F, Wistar, hepatic): 8.3 mg/kg-day
- NOAEL (Rattus norvegicus [3]; duration: 90 days, drinking water, M/F, Tif / RAlf, Deaths + Body Weight Changes: Weight gain + Food Consumption: decrease + Water Consumption: decrease + Hematology: RBC decrease, HGB …): < 12.2 mg/kg-day

SMILES: CCc1ccc(C)cc1 [4-Ethyltoluene]
- LC50 (Rattus norvegicus [1]; inhalation, Sprague-Dawley): > 19200 mg/m3
- LD50 (Rattus norvegicus [1]; oral, gavage, Sprague-Dawley): 4850 mg/kg
- NOAEL (Rattus norvegicus [1]; developmental, duration: 20 days, oral, gavage): > 200 mg/kg-day
- LOAEL (Rattus norvegicus [1]; [9]): 400 mg/kg-day
- NOAEL (Rattus norvegicus [1]; [9]): 200 mg/kg-day
- LOAEL (Rattus norvegicus [1]; [10]): 400 mg/kg-day
- NOAEL (Rattus norvegicus [1]; [10]): 200 mg/kg-day
- LOAEL (Rattus norvegicus [1]; [11]): 4810 mg/m3
- NOAEL (Rattus norvegicus [1]; [11]): 1500 mg/m3
- LOAEL (Rattus norvegicus [1]; [12]): 4810 mg/m3
- NOAEL (Rattus norvegicus [1]; [12]): 1500 mg/m3
- LOAEL (Rattus norvegicus [1]; [13]): 300 mg/kg-day
- NOAEL (Rattus norvegicus [1]; [13]): 100 mg/kg-day
- LOAEL (Rattus norvegicus [1]; [14]): 300 mg/kg-day
- NOAEL (Rattus norvegicus [1]; [14]): 100 mg/kg-day
- LD50 (Oryctolagus sp.; dermal, occlusive, New Zealand): > 5000 mg/kg
- LOAEL (Oryctolagus sp.; developmental, oral, gavage): > 200 mg/kg-day
- LOAEL (Oryctolagus sp.; reproduction developmental, oral, gavage, F): 250 mg/kg-day

SMILES: Oc1ccc(-c2ccccc2)cc1 [4-Phenylphenol]
- LEL (Rattus norvegicus [4]): 10 mg/kg-day
- NOEL (Rattus norvegicus [3]; Body Weight Changes: Reduced gain + Food Consumption: decrease + Hematology: WBC increase, NeutrophilSegment(%) decrease, Lymphocyte(%) …): 30 mg/kg-day
